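Cultured in 96-well plates, cells were exposed to test compound for 48 hours across five concentrations. GI50 is the concentration that inhibits growth by half.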 Calls of active or inactive are those of the source. Cut-off read from the data, not from the text of the source: active = GI50 up to about 1.1 µM and inactive = higher.
Assays:
Assay in all cases: NCI-60 cell line screen, 48 h
[1] = system: MCF7
[2] = system: T47D
[3] = system: UO-31
[4] = system: UACC-257
[5] = system: LOX IMVI
[6] = system: NCI-H23
[7] = system: IGROV-1
[8] = system: NCI-H522
[9] = system: 786-0
[10] = system: A498
[11] = system: BT-549
[12] = system: HCT-15
[13] = system: HOP-62
[14] = system: MDA-MB-435
[15] = system: SK-MEL-2
[16] = system: Hs-578T
[17] = system: SR
[18] = system: MOLT-4
[19] = system: HOP-92
[20] = system: SK-MEL-28
[21] = system: MDA-N
[22] = system: COLO 205
[23] = system: CCRF-CEM
[24] = system: HCC 2998
[25] = system: OVCAR-8
[26] = system: PC-3
[27] = system: SNB-19
[28] = system: KM12
[29] = system: U-251
[30] = system: CAKI-1
[31] = system: SW-620
[32] = system: NCI-H226
[33] = system: SF-539
[34] = system: HCT-116
[35] = system: RPMI-8226
[36] = system: OVCAR-4
[37] = system: UACC-62
[38] = system: ACHN
[39] = system: HT-29
[40] = system: NCI-H460
[41] = system: Malme-3M
[42] = system: NCI/ADR-RES
[43] = system: TK-10
[44] = system: SK-MEL-5
[45] = system: EKVX
[46] = system: MDA-MB-231
[47] = system: HL-60
[48] = system: K562
[49] = system: OVCAR-3
[50] = system: DU-145
[51] = system: SN12C
[52] = system: SF-268
[53] = system: SK-OV-3
[54] = system: SF-295
[55] = system: M14
[56] = system: A549
[57] = system: SNB-75
[58] = system: RXF 393
[59] = system: OVCAR-5

SMILES: O=C(O)Cc1cccc2c(=O)c3ccccc3oc12
- GI50 [1]: > 100 µM (inactive)
- GI50 [2]: 19.1 µM (inactive)
- GI50 [3]: > 100 µM (inactive)
- GI50 [4]: > 100 µM (inactive)
- GI50 [5]: > 100 µM (inactive)
- GI50 [6]: > 100 µM (inactive)
- GI50 [7]: > 100 µM (inactive)
- GI50 [8]: 48.5 µM (inactive)
- GI50 [9]: > 100 µM (inactive)
- GI50 [10]: > 100 µM (inactive)
- GI50 [11]: > 100 µM (inactive)
- GI50 [12]: 21.1 µM
- GI50 [13]: > 100 µM (inactive)
- GI50 [14]: > 100 µM (inactive)
- GI50 [15]: 27.3 µM (inactive)
- GI50 [16]: > 100 µM (inactive)
- GI50 [17]: > 100 µM (inactive)
- GI50 [18]: > 100 µM (inactive)
- GI50 [19]: > 100 µM (inactive)
- GI50 [20]: > 100 µM (inactive)
- GI50 [21]: > 100 µM (inactive)
- GI50 [22]: > 100 µM (inactive)
- GI50 [23]: > 100 µM (inactive)
- GI50 [24]: 22 µM (inactive)
- GI50 [25]: > 100 µM (inactive)
- GI50 [26]: > 100 µM (inactive)
- GI50 [27]: > 100 µM (inactive)
- GI50 [28]: > 100 µM (inactive)
- GI50 [29]: > 100 µM (inactive)
- GI50 [30]: > 100 µM (inactive)
- GI50 [31]: > 100 µM (inactive)
- GI50 [32]: > 100 µM (inactive)
- GI50 [33]: > 100 µM (inactive)
- GI50 [34]: > 100 µM (inactive)
- GI50 [35]: > 100 µM (inactive)
- GI50 [36]: > 100 µM (inactive)
- GI50 [37]: 24.3 µM (inactive)
- GI50 [38]: > 100 µM (inactive)
- GI50 [39]: > 100 µM (inactive)
- GI50 [40]: > 100 µM (inactive)
- GI50 [41]: > 100 µM (inactive)
- GI50 [42]: > 100 µM (inactive)
- GI50 [43]: > 100 µM (inactive)
- GI50 [44]: > 100 µM (inactive)
- GI50 [45]: > 100 µM (inactive)
- GI50 [46]: > 100 µM (inactive)
- GI50 [47]: > 100 µM (inactive)
- GI50 [48]: > 100 µM (inactive)
- GI50 [49]: > 100 µM (inactive)
- GI50 [50]: > 100 µM (inactive)
- GI50 [51]: > 100 µM (inactive)
- GI50 [52]: > 100 µM (inactive)
- GI50 [53]: 17.7 µM (inactive)
- GI50 [54]: > 100 µM (inactive)
- GI50 [55]: > 100 µM (inactive)
- GI50 [56]: > 100 µM (inactive)

SMILES: COc1ccc(C2NC(=O)Nc3c2c(=O)oc2c3ccc3ccccc32)cc1 (centres undefined)
- GI50 [1]: 66.2 µM (inactive)
- GI50 [2]: 31.1 µM (inactive)
- GI50 [3]: 52.7 µM (inactive)
- GI50 [4]: > 100 µM (inactive)
- GI50 [5]: 74.6 µM (inactive)
- GI50 [6]: 52.6 µM (inactive)
- GI50 [7]: 50.4 µM (inactive)
- GI50 [8]: 53.2 µM (inactive)
- GI50 [9]: 67 µM (inactive)
- GI50 [10]: 31.4 µM (inactive)
- GI50 [11]: 41.6 µM (inactive)
- GI50 [12]: 46.1 µM
- GI50 [13]: 61.4 µM (inactive)
- GI50 [14]: 56.5 µM (inactive)
- GI50 [15]: 26.4 µM (inactive)
- GI50 [16]: 41.4 µM (inactive)
- GI50 [17]: 50 µM (inactive)
- GI50 [18]: 62.8 µM (inactive)
- GI50 [19]: 35.2 µM (inactive)
- GI50 [20]: 55.5 µM (inactive)
- GI50 [21]: 59.2 µM (inactive)
- GI50 [22]: > 100 µM (inactive)
- GI50 [23]: 37 µM (inactive)
- GI50 [25]: 66.8 µM (inactive)
- GI50 [26]: 38.2 µM (inactive)
- GI50 [27]: 33.2 µM (inactive)
- GI50 [28]: 57 µM (inactive)
- GI50 [29]: 36.7 µM (inactive)
- GI50 [30]: 52.8 µM (inactive)
- GI50 [57]: 22.3 µM (inactive)
- GI50 [58]: 42 µM (inactive)
- GI50 [31]: > 100 µM (inactive)
- GI50 [32]: 23.4 µM (inactive)
- GI50 [33]: 83 µM (inactive)
- GI50 [34]: 75.9 µM (inactive)
- GI50 [35]: 43.3 µM (inactive)
- GI50 [59]: > 100 µM (inactive)
- GI50 [36]: 48 µM (inactive)
- GI50 [37]: 29.6 µM (inactive)
- GI50 [38]: 51.6 µM (inactive)
- GI50 [39]: 77.6 µM (inactive)
- GI50 [40]: 50.8 µM (inactive)
- GI50 [41]: 68.9 µM (inactive)
- GI50 [42]: 69.5 µM (inactive)
- GI50 [43]: 74.3 µM (inactive)
- GI50 [44]: 71.6 µM (inactive)
- GI50 [45]: 23.7 µM (inactive)
- GI50 [46]: 54 µM (inactive)
- GI50 [47]: 70.8 µM (inactive)
- GI50 [48]: 48.1 µM (inactive)
- GI50 [49]: 92.9 µM (inactive)
- GI50 [50]: > 100 µM (inactive)
- GI50 [51]: 68.7 µM (inactive)
- GI50 [52]: 56.4 µM (inactive)
- GI50 [53]: > 100 µM (inactive)
- GI50 [54]: 51.4 µM (inactive)
- GI50 [55]: 37.6 µM (inactive)
- GI50 [56]: 48.4 µM (inactive)

Reference: ChEMBL document CHEMBL1201862, “PubChem BioAssay data set” (2004)
